Here are results for 15 compounds from patent US20180155386A1, “PROGESTERONE ANTAGONISTS” (Evestra, Inc., priority 2011, published 2018).

Test [1] has as its target T1, progesterone receptor-LBD-UAS-bla HEK 293T cells (Homo sapiens, UniProt P06401).
T1 construct: host or cells: HEK 293T
T1 sequence (P06401 679-913 limits assumed): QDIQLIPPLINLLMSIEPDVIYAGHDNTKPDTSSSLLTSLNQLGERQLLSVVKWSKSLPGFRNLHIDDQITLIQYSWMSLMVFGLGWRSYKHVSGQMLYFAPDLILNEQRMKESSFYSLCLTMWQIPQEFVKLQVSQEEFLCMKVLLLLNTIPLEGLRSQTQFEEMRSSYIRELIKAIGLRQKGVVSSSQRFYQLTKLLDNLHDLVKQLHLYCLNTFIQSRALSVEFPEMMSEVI
Kind of test: Progesterone Antagonist Screen (GeneBLAzer Beta-lactamase reporter, activated by control agonist R5020). In kind it is cell-based. Conditions: values relative to RU486, which is 100%; HEK 293T reporter cells, agonist R5020 at EC80. The procedure: Determination of the agonist/antagonist nature of the test compounds was carried out using Invitrogen's SelectScreen™ Cell-based nuclear receptor profiling service which uses the GeneBLAzer® Beta-lactamase reporter technology. Basically this assay uses a Beta-lactamase cDNA under transcriptional control of an Upstream Activator Sequence (UAS). The UAS is activated by the GAL4 transcription factor DNA binding domain (DBD), which is expressed as a fusion protein with the target receptor ligand binding domain (LBD). Upon ligand binding, the GAL4(DBD)-NR(LDB) binds to the UAS, which controls transcription of Beta-lactamase. Beta-lactamase cleaves a special engineered fluorescent substrate which results in a change in the measured fluorescence wavelength.
The generalized protocol used for the Progesterone Antagonist Screen, activated by control Agonist R5020 is as follows:
The progesterone receptor-LBD-UAS-bla HEK 293T cells are thawed and prepared as described above for the Agonist screen. 4 μL of a 10× serial dilution of control antagonist RU-486 (starting concentration, 100 nM) or test compounds are added to appropriate wells of a TC-Treated assay plate. 32 μL of cell suspension is added to the wells which is then pre-incubated at 37° C./5% CO2 in a humidified incubator with test compounds and control antagonist titration for 30 minutes. 4 μL of a 10× control agonist (see above) at the predetermined EC80 concentration is added to wells containing the control antagonist or test compounds. The plate is incubated for 16-24 hours at 37° C./5% CO2 in a humidified incubator. 8 μL of 1 μM Substrate Loading Solution is added to each well and the plate is incubated for 2 hours at room temperature. The plate is then read on a fluorescence plate reader (Tecan Safire).

The test system of test [2] is uterine weight of non-pregnant guinea pigs. Kind of test: Uterine weights of guinea pigs. In kind it is in vivo. Conditions: 10 mg s.c. from day 10 of cycle; sacrifice day 18; untreated guinea pig 1.2 g; higher than 1.2 g indicates pure progesterone antagonistic activity. The protocol:
3 Non-pregnant guinea pigs in the luteal phase of the cycle will be treated with 10 mg of the compound subcutaneously beginning on day 10 of the cycle. Animals were sacrificed on day 18 after the start of the treatment and the uterine weights were obtained at the time of sacrifice. Comparisons will be made to onapristone-treated animals at 10 mg/animal/day s.c

Test [3] concerns human breast cancer cell line T47D. Kind of test: In vitro antiproliferative activity in human breast cancer cell line T47D (MTT). In kind it is cell-based. Conditions: 168 h, T47D cells, 7 days after cell seeding. The procedure:
Cells from frozen stock were expanded in T75 cell culture flasks. For the experiment, cells in the logarithmic growth phase (70% confluent) were cultivated for 3 day without estradiol and then washed with PBS, detached by trypsination and suspended in 5 ml of fresh RPMI-1640 medium. Cells were centrifuged for 5 min at 1000 rpm and the pellet was resuspended in RPMI-1640 medium.
Cells were seeded in 96-well plates with a density of 5000 cells/well/in 0.18 mL RPMI-1640 medium. Cells were allowed to attach for 24 h. Visual control for viability at 24 h and cell culture medium change. At this time point, compounds were added in 20 μl to the final concentration. After 3 days medium and compounds where changed again. Finally, 7 days after cell seeding, 20 μl MTT-solution was added to each well and 4 h later the formed tetrazolium salt was measured with a photometer.

For test [4], the system named is nidation (implantation) sites in pregnant rats. Kind of test: Antinidation test in rat. In kind it is in vivo, rats (Sprague-Daley). The conditions noted are these: rats with implantation sites / rats treated; 3 mg/day s.c. from day 5 of pregnancy, counted at day 9; 0/3 = full progesterone antagonist. The procedure: For every compound to be screened in rats (Sprague-Daley) 3 control rats (vehicle treated, s.c.), 3 rats treated (s.c.) with a known progestin antagonist and 3 rats treated (s.c.) with the test compound (3 mg/day) are used. Female rats will be placed with male rats for 3 to 4 days and exam the vagina for sperm plugs every morning. The presence of a sperm plug will indicate day 1 of pregnancy. Pregnant rats will be treated daily with 3 mg of the screened compound at beginning on day 5 of pregnancy. At day 9 of gestation the rats will be euthanized and nidation sites counted.

For test [5], the system named is progesterone receptor positive breast cancer. The conditions noted are these: rat model of PR positive breast cancer; cited from earlier work.

Molecules are shown by their SMILES. pIC50: −log10 of the molar value.

With `C[C@]12C[C@H](c3ccc(C(=O)C4CC4)cc3)C3=C4CCC(=O)C=C4CCC3C1CC[C@@]2(O)/C=C\CO` (stereo partly drawn) [Compound 2d, 11β-(4′-[Cyclopropylcarbonyl]phenyl)-17β-hydroxy-17-(3-hydroxyprop-1(Z)-enyl)-estra-4,9-diene-3-one], the Emax in test [1] turned out to be 6%. In addition, the “Uterine Weights of Guinea Pigs Treated with antiprogestins (grams)” value (“Uterine Weights of Guinea Pigs Treated” for short) in test [2] amounted to 0.99 grams.
In test [1], `CC#C[C@]1(O)CC[C@H]2[C@@H]3CCC4=CC(=O)CCC4=C3[C@@H](c3ccc(C(=O)C4CC4)cc3)C[C@@]21C` [Compound 2b, 11β-(4′-[Cyclopropylcarbonyl]phenyl)-17β-hydroxy-17-(1-propynyl)-estra-4,9-diene-3-one] registered an Emax of 45%. This compound had a pIC50 in test [3] of 9.19.
Turning to `CC(=O)c1ccc([C@H]2C[C@@]3(C)[C@@H](CC[C@@]3(O)CC(F)=C(F)F)[C@@H]3CCC4=CC(=O)CCC4=C32)cc1` [Compound 1c, 11β-(4′-Acetylphenyl)-17β-hydroxy-17-(2,3,3-trifluoroprop-2-enyl)-estra-4,9-diene-3-one], the Emax in test [1] worked out at 21%. In addition, the “Implantation Sites” value in test [4] was 0/3. Moreover, the pIC50 in test [3] is 8.51. Moreover, the “Uterine Weights of Guinea Pigs Treated” value in test [2] was found to be 1.8 grams.
In the same order, the values of `CC(=O)c1ccc([C@H]2C[C@@]3(C)[C@@H](CC[C@@]3(O)C#CC(F)(F)F)[C@@H]3CCC4=CC(=O)CCC4=C32)cc1` [Compound 1a, 11β-(4′-Acetylphenyl)-17β-hydroxy-17-(3,3,3-trifluoro-1-propynyl)-estra-4,9-diene-3-one] are 6%, 1/3, 7.77 and 1.3 grams.
As for `C=CC(F)(F)[C@]1(O)CC[C@H]2[C@@H]3CCC4=CC(=O)CCC4=C3[C@@H](c3ccc(-c4cccnc4)cc3)C[C@@]21C` [Compound 3b, 11β-(4′-[3-Pyridinyl]phenyl)-17β-hydroxy-17-(1,1-difluoroprop-2-enyl)-estra-4,9-diene-3-one], in test [1], the Emax turned out to be 200%. Besides, the “Implantation Sites” value in test [4] is reported as 0/4.
Take `C[C@]12C[C@H](c3ccc(-c4cccnc4)cc3)C3=C4CCC(=O)C=C4CCC3C1CC[C@@]2(O)/C=C/C(F)(F)F` (stereo partly drawn) [Compound 3a, 11β-(4′-[3-Pyridinyl]phenyl)-17β-hydroxy-17-(3,3,3-trifluoroprop-1(E)-enyl)-estra-4,9-diene-3-one]: the Emax in test [1] stood at 190%. Moreover, in test [4], the “Implantation Sites” value is reported as 0/4. In addition, the “Uterine Weights of Guinea Pigs Treated” value in test [2] is 0.87 grams.
`C=C1CCO[C@]12CCC1C3CCC4=CC(=O)CCC4=C3[C@@H](c3ccc(C(=O)C4CC4)cc3)C[C@@]12C` (stereo partly drawn) [Compound 2e, 11β-(4′-[Cyclopropylcarbonyl]phenyl)-17,23-epoxy-19,24-dinor-17α-chola-4,9,20-triene-3-one] displayed an Emax in test [1] of 48%. For the same compound, the pIC50 in test [3] was 9.43. Further, the “Uterine Weights of Guinea Pigs Treated” value in test [2] was found to be 1.02 grams.
Consider `CN(C)c1ccc([C@H]2C[C@]3(C)[C@@H](CC[C@]3(O)CCCO)[C@@H]3CCC4=CC(=O)CCC4=C32)cc1` [ZK98299, reference compound], for which, in test [4], the “Implantation Sites” value is given as 2/3. Moreover, the “Uterine Weights of Guinea Pigs Treated” value in test [2] turned out to be 1.07 grams.
`C=CC(F)(F)[C@]1(O)CC[C@H]2[C@@H]3CCC4=CC(=O)CCC4=C3[C@@H](c3ccc(C(C)=O)cc3)C[C@@]21C` [Compound 1d, 11β-(4′-Acetylphenyl)-17β-hydroxy-17-(1,1-difluoroprop-2-enyl)-estra-4,9-diene-3-one] displayed an Emax in test [1] of 119%. This compound also had a pIC50 in test [3] of 9.52.
In the same order, the values of `CCC(F)(F)[C@]1(O)CC[C@H]2[C@@H]3CCC4=CC(=O)CCC4=C3[C@@H](c3ccc(C(C)=O)cc3)C[C@@]21C` [Compound 1e, 11β-(4′-Acetyl-phenyl)-17β-hydroxy-17-(1,1-difluoropropyl)-estra-4,9-diene-3-one] are 191% and 9.52.
In test [1], `CC(=O)c1ccc([C@H]2C[C@@]3(C)C(CC[C@@]3(O)/C=C/C(F)(F)F)C3CCC4=CC(=O)CCC4=C32)cc1` (stereo partly drawn) [Compound 1b, 11β-(4′-Acetylphenyl)-17β-hydroxy-17-(3,3,3-trifluoroprop-1(E)-enyl)-estra-4,9-diene-3-one] registered an Emax of 33%. In test [4], the “Implantation Sites” value is listed as 0/3. Besides, the pIC50 in test [3] was 9.19. The “Uterine Weights of Guinea Pigs Treated” value in test [2] is listed as 0.785 grams.
In the same order, the values of `C[C@]12C[C@H](c3ccc(C(=O)C4CC4)cc3)C3=C4CCC(=O)C=C4CC[C@H]3[C@@H]1CC[C@@]2(O)C(F)(F)C(F)(F)F` [Compound 2a, 11β-(4′-[Cyclopropylcarbonyl]phenyl)-17β-hydroxy-17-(1,1,2,2,2-pentafluoroethyl)-estra-4,9-diene-3-one] are 91%, 0/3, 8.92 and 2.3 grams.
`C[C@]12C[C@H](c3ccc(C(=O)C4CC4)cc3)C3=C4CCC(=O)C=C4CC[C@H]3[C@@H]1CC[C@@]2(O)CCCO` [Compound 2c, 11β-(4′-[Cyclopropylcarbonyl]phenyl)-17β-hydroxy-17-(3-hydroxypropyl)-estra-4,9-diene-3-one] gave an Emax in test [1] of 2%. In test [3], this compound gave a pIC50 of 8.34. Further, the “Uterine Weights of Guinea Pigs Treated” value in test [2] was determined as 1.35 grams.
Compound `CC#C[C@]1(O)CC[C@H]2[C@@H]3CCC4=CC(=O)CCC4=C3[C@@H](c3ccc(C(=O)c4ccc(C#N)cc4)cc3)C[C@@]21C` [Compound 4, 11β-(4′-[4-Cyanobenzoyl]phenyl)-17β-hydroxy-17-(1-propynyl)-estra-4,9-diene-3-one] displayed an Emax in test [1] of 38%.
Consider `COCC(=O)[C@@]1(OC(C)=O)CC[C@H]2[C@@H]3CCC4=CC(=O)CCC4=C3[C@@H](c3ccc(N(C)C)cc3)C[C@@]21C` [CDB-4124, Proellex, reference compound], for which the “Implantation Sites” value in test [4] is 0/3. The “Uterine Weights of Guinea Pigs Treated” value in test [2] is 1.41 grams. Also, in test [5], the “development of new tumors” value was “decrease in the development of new tumors” and the tumor size entry is given as “regression of tumor size”.

The term Emax denotes the size of the effect at its maximum, as opposed to the concentration needed. A word on the pIC50: it is −log10 of the IC50, conventionally taken in molar units. A higher pIC50 goes with a small IC50.
